Structures are written as SMILES. Values joined by “and” are separate entries in the source; they are usually repeats but may differ in a detail not shown here. Equal values may be shown once.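 Each compound was tested at five concentrations against cells in 96-well plates for 48 hours. GI50 is the concentration that inhibits growth by half. Definition used: TGI = concentration required for complete inhibition of growth.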 *1 amine or outer side, *2 acyl side, *3 side chain or, on linkers, in order; H or OH if unused. Where a SMILES comes first, the peptide text is derived from it. Bridges are numbered along the chain shown (N, C = ends). [ ]: non-standard residue; d: D form. The star is where a group is joined. ξ: configuration not given here. X34 = O=C(C(CCCCNO[*:3])N[*:1])[*:2]; Fmoc = O=C(OCC1c2ccccc2-c2ccccc21)*; ξW = NC(Cc1c[nH]c2ccccc12)C(=O)O; Boc = CC(C)(C)OC(=O)*; ξP = O=C(O)C1CCCN1

Some test systems named below: LOX IMVI melanoma; M14 melanoma; NCI-H460 lung; OVCAR-8 ovarian; SF-295 CNS; SF-539 CNS; SK-MEL-28 melanoma; SK-OV-3 ovarian; UACC-62 melanoma.
Common to all, as to assay: NCI-60 cell line screen, 48 h

Turning to `O=c1nc(N2CCN(c3ccccc3)CC2)ccn1C1OC(CO)C(O)C1O` (stereo not given), the TGI in the test with LOX IMVI melanoma, with M14 melanoma, with NCI-H460 lung, with OVCAR-8 ovarian, with SF-295 CNS and in the test with SF-539 CNS was above 100 µM in each case. Also, the TGI in the test with SK-MEL-28 melanoma, in the test with SK-OV-3 ovarian and in the test on UACC-62 melanoma was above 100 µM each time.

Turning to `OCCCCCNc1c2ccccc2nc2ccccc12`, the TGI in the test with LOX IMVI melanoma worked out at 4.7 µM; in the test on M14 melanoma, 6.91 µM; in the test on NCI-H460 lung, 3.5 µM; with OVCAR-8 ovarian it was 8.72 µM; in the test with SF-295 CNS, 10.5 µM; with SF-539 CNS, 9.05 µM. In addition, the values for the TGI in the test with SK-MEL-28 melanoma, in the test with SK-OV-3 ovarian and in the test with UACC-62 melanoma were 16.9 µM, 13.7 µM and 3.92 µM, respectively.

Consider `CCOP(=O)(OCC)/C(C#N)=C/c1cnc(-c2ccccc2)[nH]1`, for which the TGI with LOX IMVI melanoma, with M14 melanoma, with NCI-H460 lung, in the test on OVCAR-8 ovarian, in the test with SF-295 CNS and in the test on SF-539 CNS was above 100 µM in each case. Further, the TGI in the test with SK-MEL-28 melanoma, with SK-OV-3 ovarian and in the test with UACC-62 melanoma was above 100 µM throughout.

Take `CC(=O)OCC1OC(OC(C)(C)CC/C=C(\C)[C@@H]2C/C=C(\C)CC/C=C(\C)CC2)C(O)C(O)C1OC(C)=O` (stereo not given in full): the TGI is 33.5 µM and 54.1 µM in the test on LOX IMVI melanoma; > 100 µM and 47.8 µM in the test on M14 melanoma; 35.3 µM and 61.8 µM in the test on NCI-H460 lung; 82.3 µM and 43.5 µM in the test with OVCAR-8 ovarian; > 100 µM and 42.4 µM in the test on SF-295 CNS; 82.9 µM and 33.9 µM in the test with SF-539 CNS. Besides, the TGI was > 100 µM and 40.6 µM in the test on SK-MEL-28 melanoma; > 100 µM and 34 µM with SK-OV-3 ovarian; > 100 µM and 30.6 µM with UACC-62 melanoma. Further, the GI50 in the test with M14 melanoma is 60 µM and 19.7 µM; in the test with SF-539 CNS it was 32.6 µM and 13.5 µM; in the test on SK-MEL-28 melanoma, > 100 µM and 21.7 µM; with SK-OV-3 ovarian, > 100 µM and 18.5 µM; with UACC-62 melanoma it was > 92.8 µM and 15.3 µM.

For `O=C(CN1c2ccccc2Sc2ccccc21)N1CCNCC1`, the TGI with LOX IMVI melanoma, in the test with M14 melanoma, in the test on NCI-H460 lung, with OVCAR-8 ovarian, in the test on SF-295 CNS and with SF-539 CNS was above 100 µM each time. In addition, the TGI with SK-MEL-28 melanoma, in the test with SK-OV-3 ovarian and with UACC-62 melanoma was above 100 µM throughout.

As to `O=C(/C=C/c1ccc(O)c([N+](=O)[O-])c1)CC(=O)/C=C/c1ccc(O)c([N+](=O)[O-])c1`, the TGI with LOX IMVI melanoma is 27.5 µM; in the test with M14 melanoma it was above 100 µM; in the test on NCI-H460 lung, above 100 µM; in the test on OVCAR-8 ovarian, 39.6 µM; with SF-295 CNS it was above 100 µM; in the test on SF-539 CNS it was above 100 µM. The TGI in the test with SK-MEL-28 melanoma, with SK-OV-3 ovarian and in the test with UACC-62 melanoma was above 100 µM each time.

On to `Cc1nc(-c2ccc([N+](=O)[O-])cc2)cn2c1nc1ccccc12`, for which the TGI in the test with LOX IMVI melanoma, in the test on M14 melanoma, in the test with NCI-H460 lung, in the test on OVCAR-8 ovarian, with SF-295 CNS and in the test on SF-539 CNS was above 100 µM in each case. In addition, the TGI with SK-MEL-28 melanoma was above 100 µM; in the test on SK-OV-3 ovarian, above 100 µM; in the test on UACC-62 melanoma it was 53.8 µM.

As for `CN(C)CCCOC(=O)C(c1ccccc1)C1(O)CCSCC1` (stereo not given), the TGI with LOX IMVI melanoma, in the test with M14 melanoma, in the test on NCI-H460 lung, with OVCAR-8 ovarian, in the test on SF-295 CNS and in the test with SF-539 CNS was above 100 µM each time. The TGI in the test with SK-MEL-28 melanoma, with SK-OV-3 ovarian and in the test on UACC-62 melanoma was above 100 µM each time.

For `COCOC1/C=C/CCCCC2=C(C)C=C(C1)O2` (stereo not given), the TGI in the test on LOX IMVI melanoma, in the test with M14 melanoma, with NCI-H460 lung, with OVCAR-8 ovarian, in the test on SF-295 CNS and in the test on SF-539 CNS was above 100 µM in each case. Also, the TGI with SK-MEL-28 melanoma, with SK-OV-3 ovarian and with UACC-62 melanoma was above 100 µM in each case.

As for `C=C(C)C12CC(COC(=O)c3ccccc3)C34OC5(OC1C3C1OC1(CO)C(O)C1(O)C(OC(=O)c3ccccc3)C(C)C(C(C)CCCCCCC5O)C14)O2` (stereo not given), the TGI in the test with LOX IMVI melanoma, in the test with M14 melanoma, in the test on NCI-H460 lung, with OVCAR-8 ovarian, in the test on SF-295 CNS and in the test on SF-539 CNS was above 100 µM in each case. In addition, the TGI in the test with SK-MEL-28 melanoma, in the test with SK-OV-3 ovarian and in the test with UACC-62 melanoma was above 100 µM in each case.

Regarding `COc1cc(-c2cc(=O)c3cc4c(cc3[nH]2)OCO4)cc(OC)c1O`, the TGI in the test with LOX IMVI melanoma, in the test with M14 melanoma, in the test on NCI-H460 lung, in the test on OVCAR-8 ovarian, with SF-295 CNS and in the test with SF-539 CNS was above 10 µM in each case. The TGI in the test on SK-MEL-28 melanoma, in the test with SK-OV-3 ovarian and with UACC-62 melanoma was above 10 µM each time.

Turning to `C[C@@]12[C@H]3CC[C@@H]1[C@H](O)C(=O)N2CC3`, the TGI in the test on LOX IMVI melanoma, with M14 melanoma, in the test with NCI-H460 lung, with OVCAR-8 ovarian, in the test on SF-295 CNS and in the test with SF-539 CNS was above 100 µM throughout. Moreover, the TGI in the test on SK-MEL-28 melanoma, in the test with SK-OV-3 ovarian and in the test with UACC-62 melanoma was above 100 µM each time.

With `COC(=O)CNC(=O)C(Cc1ccccc1)NC(=O)C(CCSC)NC(=O)C(Cc1ccc(O)cc1)NC(=O)OC(C)(C)C` (stereo not given) (Boc-YMFG-OMe; configuration not given here), the TGI in the test with LOX IMVI melanoma was 32.7 µM; with M14 melanoma, above 100 µM; in the test with NCI-H460 lung, above 100 µM; with OVCAR-8 ovarian, above 100 µM; with SF-295 CNS it was above 100 µM; in the test with SF-539 CNS, above 100 µM. Besides, the TGI in the test on SK-MEL-28 melanoma is 34.8 µM; in the test with SK-OV-3 ovarian, above 100 µM; in the test on UACC-62 melanoma, above 100 µM.

As to `Cc1ccc([C@@H]2[C@@H](C(=O)c3ccccn3)[C@H](c3ccc(C)cc3)C[C@](O)(c3ccccn3)[C@H]2C(=O)c2ccccn2)cc1`, the TGI is above 100 µM in the test with LOX IMVI melanoma; 3.01 µM in the test on M14 melanoma; 10.7 µM in the test on NCI-H460 lung; above 100 µM in the test with OVCAR-8 ovarian; above 100 µM in the test with SF-295 CNS; above 100 µM with SF-539 CNS. Besides, the TGI is above 100 µM with SK-MEL-28 melanoma, above 39.2 µM in the test on SK-OV-3 ovarian and 35.2 µM with UACC-62 melanoma.

On to `CC(C)(N=NC(C)(C)C(=O)NCCO)C(=O)NCCO`, for which the TGI in the test with LOX IMVI melanoma, in the test with M14 melanoma, with NCI-H460 lung, with OVCAR-8 ovarian, in the test on SF-295 CNS and with SF-539 CNS was above 100 µM in each case. Moreover, the TGI in the test on SK-MEL-28 melanoma, in the test with SK-OV-3 ovarian and in the test on UACC-62 melanoma was above 100 µM each time.

For `CCOc1cc(NC(C)=O)ccc1C(=O)NNC(=O)c1ccccc1OC(C)=O`, the TGI was above 100 µM with LOX IMVI melanoma; 26.6 µM in the test on M14 melanoma; 32.9 µM in the test with NCI-H460 lung; above 100 µM in the test with OVCAR-8 ovarian; above 100 µM in the test on SF-295 CNS; above 80.7 µM in the test on SF-539 CNS. In addition, the values for the TGI in the test with SK-MEL-28 melanoma, with SK-OV-3 ovarian and in the test on UACC-62 melanoma were above 100 µM, above 100 µM and 37 µM, respectively.

In the case of `O=C(O)CN(CCNC(=O)OCC1c2ccccc2-c2ccccc21)CCNC(=O)OCC1c2ccccc2-c2ccccc21`, the TGI was determined as 32.4 µM in the test with LOX IMVI melanoma; 73.4 µM in the test with M14 melanoma; 41.2 µM in the test on NCI-H460 lung; 37.2 µM in the test with OVCAR-8 ovarian; 54.7 µM in the test on SF-295 CNS; 46.7 µM in the test with SF-539 CNS. Also, the TGI turned out to be 42.1 µM in the test with SK-MEL-28 melanoma, 70.6 µM with SK-OV-3 ovarian and 47.5 µM in the test with UACC-62 melanoma.

As to `c1ccc2c(c1)OC(N1CCCC1)c1cnc(N3CCCC3)nc1-2` (stereo not given), the TGI with LOX IMVI melanoma is above 100 µM; with M14 melanoma it was above 100 µM; with NCI-H460 lung, above 100 µM; in the test on OVCAR-8 ovarian, above 100 µM; in the test with SF-295 CNS it was 82.1 µM; in the test with SF-539 CNS, above 100 µM. Also, the TGI with SK-MEL-28 melanoma, with SK-OV-3 ovarian and in the test on UACC-62 melanoma was above 100 µM in each case.

`NC(=O)CNC(=O)C1CCCN1C(=O)C1CCCCNOC(=O)CC[C@@H](NC(=O)OCC2c3ccccc3-c3ccccc32)C(=O)NC(Cc2c[nH]c3ccccc23)C(=O)N1` (stereo not given in full) (Fmoc-[dE][ξW][X34][ξP]G-NH2; ester 1-3): the TGI in the test with LOX IMVI melanoma, with M14 melanoma, with NCI-H460 lung, in the test with OVCAR-8 ovarian, in the test with SF-295 CNS and in the test on SF-539 CNS was above 100 µM throughout. Besides, the TGI in the test on SK-MEL-28 melanoma, in the test on SK-OV-3 ovarian and with UACC-62 melanoma was above 100 µM throughout.

For the compound `Cc1nnc2n1N=C(c1cc(F)c(Cl)cc1Cl)/C(=C/c1ccc(Cl)cc1)S2`, the TGI with LOX IMVI melanoma is 28.3 µM; in the test on M14 melanoma, 43 µM; in the test on NCI-H460 lung it was 38.9 µM; in the test on OVCAR-8 ovarian, above 100 µM; with SF-295 CNS, 35.5 µM; in the test on SF-539 CNS it was 92.3 µM. Also, the TGI is above 100 µM in the test on SK-MEL-28 melanoma, above 100 µM with SK-OV-3 ovarian and 52.8 µM with UACC-62 melanoma.

For the origin of these results see PubChem BioAssay (NCI).
